What all share (assay type): biochemical
Test [1] addresses SIK1 (Homo sapiens, UniProt P57059). The test can be described thus: Enzymatic activity assay SIK1, RapidFire mass spectrometry (phosphorylation of CHK-peptide). Conditions: RapidFire MS, inhibition of SIK1; read-out: SIK1 RF IC50. In outline: (§1)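 Compounds (12-point, 3-fold, generally 30 μM to 170 pM) were pre-incubated 30 min at ambient temperature with SIK1 (5 nM), SIK2 (0.5 nM) or SIK3 (1.5 nM) in HEPES pH 7.0/magnesium acetate buffer. CHK-peptide (10 μM solution) and ATP (100 μM solution) were then added for 45 min before formic acid quench.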

The target of test [2] is SIK2 (Homo sapiens, UniProt Q9H0K1). The test can be described thus: Enzymatic activity assay SIK2, RapidFire mass spectrometry (phosphorylation of CHK-peptide). Conditions: RapidFire MS, inhibition of SIK2; read-out: SIK2 RF IC50. In outline: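 SIK2 (0.5 nM) in pH 7.0 HEPES buffer with 10 mM Mg acetate phosphorylates CHK-peptide (10 μM solution) with 100 μM ATP solution, 45 min ambient, then formic acid quench.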
Sequence of SIK2 (Q9H0K1 whole entry): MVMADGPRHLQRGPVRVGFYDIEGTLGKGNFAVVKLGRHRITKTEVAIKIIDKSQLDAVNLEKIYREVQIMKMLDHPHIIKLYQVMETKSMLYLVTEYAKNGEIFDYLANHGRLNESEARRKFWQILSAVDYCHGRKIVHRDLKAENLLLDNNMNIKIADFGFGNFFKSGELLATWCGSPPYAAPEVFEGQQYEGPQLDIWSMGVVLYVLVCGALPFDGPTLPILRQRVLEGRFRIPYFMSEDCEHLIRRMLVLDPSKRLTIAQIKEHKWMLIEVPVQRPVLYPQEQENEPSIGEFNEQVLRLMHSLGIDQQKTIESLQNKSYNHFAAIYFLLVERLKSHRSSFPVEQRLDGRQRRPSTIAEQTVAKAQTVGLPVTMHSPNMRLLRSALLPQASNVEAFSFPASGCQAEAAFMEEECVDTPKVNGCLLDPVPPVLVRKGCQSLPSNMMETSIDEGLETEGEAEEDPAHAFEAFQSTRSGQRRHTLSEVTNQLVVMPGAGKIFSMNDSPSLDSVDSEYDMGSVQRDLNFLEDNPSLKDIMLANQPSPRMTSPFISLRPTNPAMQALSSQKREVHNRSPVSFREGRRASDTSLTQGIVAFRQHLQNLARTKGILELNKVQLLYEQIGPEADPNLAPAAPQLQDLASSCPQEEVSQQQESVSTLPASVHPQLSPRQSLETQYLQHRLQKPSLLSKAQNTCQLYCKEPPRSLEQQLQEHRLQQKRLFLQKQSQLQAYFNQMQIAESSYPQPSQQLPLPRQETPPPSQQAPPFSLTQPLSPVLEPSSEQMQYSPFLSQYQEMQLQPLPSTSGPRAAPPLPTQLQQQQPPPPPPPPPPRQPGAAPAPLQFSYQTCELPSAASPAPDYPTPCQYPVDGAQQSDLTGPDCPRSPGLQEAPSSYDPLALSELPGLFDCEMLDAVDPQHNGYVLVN

Test [3] has as its target SIK3 (Homo sapiens, UniProt Q9Y2K2). The test can be described thus: Enzymatic activity assay SIK3, RapidFire mass spectrometry (phosphorylation of CHK-peptide). Particulars: RapidFire MS, inhibition of SIK3; read-out: SIK3 RF IC50. In short, it runs like this: as §1

In patent US20240383875A1, “Benzimidazole Pyridine Derivatives” (Hoffmann-La Roche Inc., priority 2022, published 2024) one finds IC50 data, which are given here for 22 compounds.

Sequence of SIK1 (P57059 whole entry): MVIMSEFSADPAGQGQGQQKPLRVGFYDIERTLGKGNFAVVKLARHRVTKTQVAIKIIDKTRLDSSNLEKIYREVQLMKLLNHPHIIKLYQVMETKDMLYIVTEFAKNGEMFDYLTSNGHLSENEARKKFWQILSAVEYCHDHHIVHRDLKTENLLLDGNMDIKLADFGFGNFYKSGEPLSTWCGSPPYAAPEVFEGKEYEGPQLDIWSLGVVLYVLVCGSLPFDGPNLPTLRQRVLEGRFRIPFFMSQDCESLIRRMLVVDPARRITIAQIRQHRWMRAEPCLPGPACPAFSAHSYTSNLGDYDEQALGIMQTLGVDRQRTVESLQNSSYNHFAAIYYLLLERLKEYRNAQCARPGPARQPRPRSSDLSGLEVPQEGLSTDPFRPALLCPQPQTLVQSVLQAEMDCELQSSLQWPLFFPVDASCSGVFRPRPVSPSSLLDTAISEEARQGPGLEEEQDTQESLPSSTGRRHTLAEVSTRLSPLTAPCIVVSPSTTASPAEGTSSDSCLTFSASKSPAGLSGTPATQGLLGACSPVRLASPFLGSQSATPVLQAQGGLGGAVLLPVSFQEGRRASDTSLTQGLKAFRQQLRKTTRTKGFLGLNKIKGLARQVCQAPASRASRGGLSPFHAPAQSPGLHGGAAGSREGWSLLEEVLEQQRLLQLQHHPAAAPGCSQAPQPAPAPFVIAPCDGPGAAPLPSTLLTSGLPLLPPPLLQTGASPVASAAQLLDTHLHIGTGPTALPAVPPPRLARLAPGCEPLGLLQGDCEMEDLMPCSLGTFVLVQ
Sequence of SIK3 (Q9Y2K2 whole entry): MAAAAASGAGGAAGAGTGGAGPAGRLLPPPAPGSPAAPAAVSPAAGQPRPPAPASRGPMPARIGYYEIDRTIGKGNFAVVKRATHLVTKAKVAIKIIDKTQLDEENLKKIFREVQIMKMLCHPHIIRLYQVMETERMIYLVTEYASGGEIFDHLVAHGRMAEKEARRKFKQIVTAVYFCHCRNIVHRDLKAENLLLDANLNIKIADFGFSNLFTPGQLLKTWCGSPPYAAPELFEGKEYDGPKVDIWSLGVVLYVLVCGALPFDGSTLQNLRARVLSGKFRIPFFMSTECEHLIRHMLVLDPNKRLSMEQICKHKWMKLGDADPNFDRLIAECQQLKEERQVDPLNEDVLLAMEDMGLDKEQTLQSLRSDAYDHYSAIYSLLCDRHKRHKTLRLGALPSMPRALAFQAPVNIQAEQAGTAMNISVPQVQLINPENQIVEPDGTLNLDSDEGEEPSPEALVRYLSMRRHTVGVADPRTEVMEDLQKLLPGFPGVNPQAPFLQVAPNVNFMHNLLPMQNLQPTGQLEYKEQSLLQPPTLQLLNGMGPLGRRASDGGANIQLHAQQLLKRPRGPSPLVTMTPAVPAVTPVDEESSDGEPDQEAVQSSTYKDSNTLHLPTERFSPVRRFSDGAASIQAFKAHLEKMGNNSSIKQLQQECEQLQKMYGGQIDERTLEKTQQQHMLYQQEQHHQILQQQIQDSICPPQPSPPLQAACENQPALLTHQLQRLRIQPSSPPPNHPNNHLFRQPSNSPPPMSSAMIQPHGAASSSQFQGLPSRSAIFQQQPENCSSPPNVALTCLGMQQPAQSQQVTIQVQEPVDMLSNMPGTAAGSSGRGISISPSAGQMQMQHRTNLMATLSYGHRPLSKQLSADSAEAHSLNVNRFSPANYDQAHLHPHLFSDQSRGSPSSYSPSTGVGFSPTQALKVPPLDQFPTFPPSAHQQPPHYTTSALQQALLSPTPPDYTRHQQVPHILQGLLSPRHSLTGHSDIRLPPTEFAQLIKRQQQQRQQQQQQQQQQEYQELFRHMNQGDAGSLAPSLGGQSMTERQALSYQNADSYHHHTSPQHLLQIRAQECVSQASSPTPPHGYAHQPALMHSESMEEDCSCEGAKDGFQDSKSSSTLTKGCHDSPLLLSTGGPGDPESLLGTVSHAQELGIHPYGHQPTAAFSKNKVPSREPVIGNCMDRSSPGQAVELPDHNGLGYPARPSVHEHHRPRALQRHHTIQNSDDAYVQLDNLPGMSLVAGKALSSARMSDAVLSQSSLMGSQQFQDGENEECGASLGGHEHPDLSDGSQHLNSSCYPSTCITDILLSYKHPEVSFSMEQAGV

As for `COC(=N)c1cc(C)n(-c2nc(-n3cnc4cc(Nc5ccc(C)nn5)ccc43)ccc2[C@H](C)O)n1` [Example 276, 1-[3-[(1S)-1-hydroxyethyl]-6-[5-[(6-methylpyridazin-3-yl)amino]benzimidazol-1-yl]-2-pyridyl]-5-methyl-pyrazole-3-carboximidic acid methyl ester], the IC50 – broadly, the concentration at which inhibition is half-maximal – in test [1] is 82 nM; in test [2], 2.3 nM; in test [3], 1.8 nM.
The matching figures for `Cc1ccc(Nc2ccc3c(c2)ncn3-c2ccc(C(C)O)c(-c3cn(C4CC4(F)F)nc3C)n2)nn1` (stereo not drawn) [Example 277, 1-[2-[1-(2,2-difluorocyclopropyl)-3-methyl-pyrazol-4-yl]-6-[5-[(6-methylpyridazin-3-yl)amino]benzimidazol-1-yl]-3-pyridyl]ethanol]: 521 nM, 2 nM and 1.8 nM.
The matching figures for `COC(C)Cn1cc(-c2nc(-n3cnc4cc(Nc5ccc(C)nn5)ccc43)ccc2C(C)O)c(C)n1` (stereo not drawn) [Example 278, 1-[2-[1-(2-methoxypropyl)-3-methyl-pyrazol-4-yl]-6-[5-[(6-methylpyridazin-3-yl)amino]benzimidazol-1-yl]-3-pyridyl]ethanol]: 249 nM, 2 nM and 4.7 nM.
The matching figures for `COC(C)Cn1ncc(-c2nc(-n3cnc4cc(Nc5ccc(C)nn5)ccc43)ccc2C(C)O)c1C` (stereo not drawn) [Example 279, 1-[2-[1-(2-methoxypropyl)-5-methyl-pyrazol-4-yl]-6-[5-[(6-methylpyridazin-3-yl)amino]benzimidazol-1-yl]-3-pyridyl]ethanol]: 532 nM, 4.7 nM and 2.9 nM.
Regarding `Cc1ccc(Nc2ccc3ncn(-c4ccc([C@H](C)O)c(-n5nc(C#N)cc5C)n4)c3c2)nn1` [Example 280, 1-[3-[(1S)-1-hydroxyethyl]-6-[6-[(6-methylpyridazin-3-yl)amino]benzimidazol-1-yl]-2-pyridyl]-5-methyl-pyrazole-3-carbonitrile], the results for the half-maximal inhibitory concentration (IC50) in test [1], in test [2] and in test [3] were 39 nM, 26.3 nM and 149 nM, respectively.
For the compound `Cc1ccc(Nc2ccc3c(c2)ncn3-c2ccc(C(C)O)c(-c3cn(CC(C)(F)F)nc3C)n2)nn1` (stereo not drawn) [Example 281, 1-[2-[1-(2,2-difluoropropyl)-3-methyl-pyrazol-4-yl]-6-[5-[(6-methylpyridazin-3-yl)amino]benzimidazol-1-yl]-3-pyridyl]ethanol], the 50% inhibitory concentration (IC50) in test [1] is 46 nM; in test [2], 0.6 nM; in test [3], 1.2 nM.
Consider `Cc1ccc(Nc2cc3ncn(-c4ccc(C(C)O)c(-n5nc(C#N)cc5C)n4)c3cc2OC2COC2)nn1` (stereo not drawn) [Example 282, 1-[3-(1-hydroxyethyl)-6-[5-[(6-methylpyridazin-3-yl)amino]-6-(oxetan-3-yloxy)benzimidazol-1-yl]-2-pyridyl]-5-methyl-pyrazole-3-carbonitrile], for which the results for the IC50 in test [1], in test [2] and in test [3] were 7 nM, 0.4 nM and 0.8 nM, respectively.
For `CCc1cc(-c2nc(-n3cnc4cc(Nc5ccc(C)nn5)ccc43)ccc2C(C)O)c(C)cn1` (stereo not drawn) [Example 283, 1-[2-(2-ethyl-5-methyl-4-pyridyl)-6-[5-[(6-methylpyridazin-3-yl)amino]benzimidazol-1-yl]-3-pyridyl]ethanol] the same measures were 1050 nM, 21.5 nM and 7.9 nM.
The matching figures for `Cc1ccc(Nc2ccc3c(c2)ncn3-c2ccc(C(C)O)c(-c3cnn(CC(C)(F)F)c3C)n2)nn1` (stereo not drawn) [Example 284, 1-[2-[1-(2,2-difluoropropyl)-5-methyl-pyrazol-4-yl]-6-[5-[(6-methylpyridazin-3-yl)amino]benzimidazol-1-yl]-3-pyridyl]ethanol]: 167 nM, 2.1 nM and 1.9 nM.
As to `COc1cc(-c2nc(-n3cnc4cc(Nc5ccc(C)nn5)ccc43)ccc2C(C)O)c(C)cn1` (stereo not drawn) [Example 285, 1-[2-(2-methoxy-5-methyl-4-pyridyl)-6-[5-[(6-methylpyridazin-3-yl)amino]benzimidazol-1-yl]-3-pyridyl]ethanol], the 50% inhibitory concentration (IC50) was 497 nM in test [1], 11.6 nM in test [2] and 6.4 nM in test [3].
Regarding `Cc1ccc(Nc2ccc3c(c2)ncn3-c2ccc([C@H](C)O)c(-n3nc(C(F)F)cc3C(F)F)n2)nn1` [Example 287, (1S)-1-[2-[3,5-bis(difluoromethyl)pyrazol-1-yl]-6-[5-[(6-methylpyridazin-3-yl)amino]benzimidazol-1-yl]-3-pyridyl]ethanol], the IC50 in test [1] came to 109 nM; in test [2] it was 0.8 nM; in test [3] it was 0.4 nM.
The matching figures for `Cc1ccc(Nc2ccc3c(c2)ncn3-c2ccc([C@@H](C)O)c(-n3nc(C(F)F)cc3C(F)F)n2)nn1` [Example 288, (1R)-1-[2-[3,5-bis(difluoromethyl)pyrazol-1-yl]-6-[5-[(6-methylpyridazin-3-yl)amino]benzimidazol-1-yl]-3-pyridyl]ethanol]: 1600 nM, 13.2 nM and 5.8 nM.
The matching figures for `Cc1ccc(Nc2ccc3c(c2)ncn3-c2ccc(C(C)O)c(-c3cc(C4CC4)ncc3C)n2)nn1` (stereo not drawn) [Example 289, 1-[2-(2-cyclopropyl-5-methyl-4-pyridyl)-6-[5-[(6-methylpyridazin-3-yl)amino]benzimidazol-1-yl]-3-pyridyl]ethanol]: 595 nM, 12.4 nM and 5.8 nM.
For the compound `Cc1ccc(Nc2ccc3c(c2)ncn3-c2ccc(C(C)O)c(-n3nc(OC(F)F)cc3C)n2)nn1` (stereo not drawn) [Example 290, 1-[2-[3-(difluoromethoxy)-5-methyl-pyrazol-1-yl]-6-[5-[(6-methylpyridazin-3-yl)amino]benzimidazol-1-yl]-3-pyridyl]ethanol], the IC50 in test [1] came to 54 nM; in test [2], 0.6 nM; in test [3], 0.5 nM.
The matching figures for `Cc1ccc(Nc2ccc3ncn(-c4ccc(C(C)O)c(-n5nc(C#N)c6c5CCN(C)C6)n4)c3c2)nn1` (stereo not drawn) [Example 291, 1-[3-(1-hydroxyethyl)-6-[6-[(6-methylpyridazin-3-yl)amino]benzimidazol-1-yl]-2-pyridyl]-5-methyl-6,7-dihydro-4~{H}-pyrazolo[4,3-c]pyridine-3-carbonitrile]: 1 nM, 1.2 nM and 11.9 nM.
For `Cc1cc(S(C)(=O)=O)c(Nc2ccc3c(c2)ncn3-c2ccc(C(C)O)c(-n3nc(C#N)cc3C)n2)nn1` (stereo not drawn) [Example 292, 1-[3-(1-hydroxyethyl)-6-[5-[(6-methyl-4-methylsulfonyl-pyridazin-3-yl)amino]benzimidazol-1-yl]-2-pyridyl]-5-methyl-pyrazole-3-carbonitrile] the same measures were 617 nM, 34.2 nM and 24.2 nM.
The matching figures for `COCCOCCOCCOCCOCCOCCOCCOc1ccc(Nc2ccc3c(c2)ncn3-c2ccc(C(C)O)c(-n3nc(C#N)cc3C)n2)nn1` (stereo not drawn) [Example 293, 1-[3-(1-hydroxyethyl)-6-[5-[[6-[2-[2-[2-[2-[2-[2-(2-methoxyethoxy)ethoxy]ethoxy]ethoxy]ethoxy]ethoxy]ethoxy]pyridazin-3-yl]amino]benzimidazol-1-yl]-2-pyridyl]-5-methyl-pyrazole-3-carbonitrile]: 132 nM, 6 nM and 2.8 nM.
With `Cc1ccc(Nc2cc3c(cc2OCCN2CCOCC2)ncn3-c2ccc(C(C)O)c(-n3nc(C#N)cc3C)n2)cn1` (stereo not drawn) [Example 294, 1-[3-(1-hydroxyethyl)-6-[6-[(6-methyl-3-pyridyl)amino]-5-(2-morpholinoethoxy)benzimidazol-1-yl]-2-pyridyl]-5-methyl-pyrazole-3-carbonitrile], the IC50 in test [1] was found to be 2 nM; in test [2], 0.3 nM; in test [3] it was 3 nM.
The matching figures for `Cc1cc(C#N)nn1-c1nc(-n2cnc3ccc(N4CCCC45COC5)cc32)ccc1C(C)O` (stereo not drawn) [Example 295, 1-[3-(1-hydroxyethyl)-6-[6-(2-oxa-5-azaspiro[3.4]octan-5-yl)benzimidazol-1-yl]-2-pyridyl]-5-methyl-pyrazole-3-carbonitrile]: 10 nM, 19.6 nM and 235 nM.
For `Cc1cc(C#N)nn1-c1nc(-n2cnc3cc(N4CCCC45COC5)ccc32)ccc1C(C)O` (stereo not drawn) [Example 296, 1-[3-(1-hydroxyethyl)-6-[5-(2-oxa-5-azaspiro[3.4]octan-5-l)benzimidazol-1-yl]-2-pyridyl]-5-methyl-pyrazole-3-carbonitrile] the same measures were 137 nM, 77 nM and 90 nM.
`Cc1ccc(Nc2cc3ncn(-c4ccc(C(C)O)c(-n5nc(C#N)cc5C)n4)c3cc2OCCN2CCOCC2)cn1` (stereo not drawn) [Example 297, 1-[3-(1-hydroxyethyl)-6-[5-[(6-methyl-3-pyridyl)amino]-6-(2-morpholinoethoxy)benzimidazol-1-yl]-2-pyridyl]-5-methyl-pyrazole-3-carbonitrile]: the values for the IC50 in test [1], in test [2] and in test [3] were 10 nM, 6.2 nM and 14.8 nM, respectively.
Turning to `Cc1ccc(Nc2ccc3c(c2)ncn3-c2ccc(C(C)O)c(N3CCC(C(F)F)C3)n2)nn1` (stereo not drawn) [Example 298, 1-[2-[3-(difluoromethyl)pyrrolidin-1-yl]-6-[5-[(6-methylpyridazin-3-yl)amino]benzimidazol-1-yl]-3-pyridyl]ethanol], the IC50 turned out to be 1510 nM in test [1], 27.4 nM in test [2] and 3 nM in test [3].
